Activity calls are given as the source filed them. The calls are words filed in the database; no cut-off is given here.
What was measured:
CYP450 [1] = assay: Drug metabolism in rat liver S9 fraction assessed as CYP450-mediated metabolism by measuring parent compound remaining at 5 uM measured after 15 mins in presence of NADPH by UPLC analysis; assay type: ADME, subcellular; settings: read-out: Stability
CYP450 [2] = assay: Drug metabolism in mouse liver S9 fraction assessed as CYP450-mediated metabolism by measuring parent compound remaining at 5 uM measured after 30 mins in presence of NADPH by UPLC analysis; assay type: ADME, subcellular; settings: read-out: Stability
[3] = Selectivity index, ratio of EC50 for human MRC5 cells to EC50 for Trypanosoma brucei rhodesiense STIB-900; assay type: toxicity; settings: read-out: Ratio EC50
UGT [4] = assay: Drug metabolism in rat liver S9 fraction assessed as UGT-mediated metabolism by measuring parent compound remaining at 5 uM measured after 15 mins in presence of UDPGA by UPLC analysis; assay type: ADME, subcellular; settings: read-out: Stability
UGT [5] = assay: Drug metabolism in mouse liver S9 fraction assessed as UGT-mediated metabolism by measuring parent compound remaining at 5 uM measured immediately in presence of UDPGA by UPLC analysis; assay type: ADME, subcellular; settings: read-out: Stability
CYP450 [6] = assay: Drug metabolism in mouse liver S9 fraction assessed as CYP450-mediated metabolism by measuring parent compound remaining at 5 uM measured after 15 mins in presence of NADPH by UPLC analysis; assay type: ADME, subcellular; settings: read-out: Stability
CYP450 [7] = molecular target: T1, CYP450 (Homo sapiens, UniProt P04798+P05177+P05181+P08684+P10632+P10635+P11509+P11712+P13584+P20813+P20815+P20853+P24462+P24903+P33260+P33261+P51589+P78329+P98187+Q02928+Q08477+Q16678+Q16696+Q5TCH4+Q6VVX0+Q7Z449+Q8TAV3+Q96SQ9+Q9HB55); assay: Drug metabolism in human liver S9 fraction assessed as CYP450-mediated metabolism by measuring parent compound remaining at 5 uM measured after 30 mins in presence of NADPH by UPLC analysis; assay type: ADME, subcellular; settings: read-out: Stability
Trypanosoma brucei [8] = assay: Antitrypanosomal activity against isometamidium resistant Trypanosoma brucei ISMR1 after 48 hrs by alamar blue assay; assay type: functional, organism-based; settings: ISMR1, 48 h
CYP450 [9] = assay: Drug metabolism in mouse liver S9 fraction assessed as CYP450-mediated metabolism by measuring parent compound remaining at 5 uM measured immediately in presence of NADPH by UPLC analysis; assay type: ADME, subcellular; settings: read-out: Stability
MRC5 = assay: Cytotoxicity against human MRC5 cells assessed as reduction in cell viability after 3 days by resazurin dye-based assay; settings: MRC5, 72 h
[10] = Selectivity index, ratio of EC50 for human MRC5 cells to EC50 for Trypanosoma brucei brucei Squib 427; assay type: toxicity; settings: read-out: Ratio EC50
CYP450 [11] = molecular target: T1, CYP450; assay: Drug metabolism in human liver S9 fraction assessed as CYP450-mediated metabolism by measuring parent compound remaining at 5 uM measured after 60 mins in presence of NADPH by UPLC analysis; assay type: ADME, subcellular; settings: read-out: Stability
Trypanosoma brucei [12] = assay: Antitrypanosomal activity against Trypanosoma brucei TbAT1-KO after 48 hrs by alamar blue assay; assay type: functional, organism-based
Trypanosoma brucei [13] = assay: Resistance factor, ratio of EC50 for Trypanosoma brucei TbAT1-KO to EC50 for wild type Trypanosoma brucei Lister 427; assay type: functional
[14] = Drug metabolism in rat liver S9 fraction assessed as UGT-mediated metabolism by measuring parent compound remaining at 5 uM measured after 30 mins in presence of UDPGA by UPLC analysis; assay type: ADME, subcellular; settings: s9, 0.5 h
CYP450 [15] = molecular target: T1, CYP450; assay: Drug metabolism in human liver S9 fraction assessed as CYP450-mediated metabolism by measuring parent compound remaining at 5 uM measured immediately in presence of NADPH by UPLC analysis; assay type: ADME, subcellular; settings: read-out: Stability
Trypanosoma brucei [16] = assay: Resistance factor, ratio of EC50 for pentamidine/diminazene/melaminophenyl arsenical resistant Trypanosoma brucei B48 to EC50 for wild type Trypanosoma brucei Lister 427; assay type: functional
Trypanosoma brucei [17] = assay: Resistance factor, ratio of EC50 for isometamidium resistant Trypanosoma brucei […] to EC50 for wild type Trypanosoma brucei Lister 427; assay type: functional
Trypanosoma brucei [18] = assay: Antitrypanosomal activity against wild type Trypanosoma brucei Lister 427 after 48 hrs by alamar blue assay; assay type: functional, organism-based; settings: Lister 427, 48 h
UGT [19] = assay: Drug metabolism in rat liver S9 fraction assessed as UGT-mediated metabolism by measuring parent compound remaining at 5 uM measured immediately in presence of UDPGA by UPLC analysis; assay type: ADME, subcellular; settings: read-out: Stability
Trypanosoma congolense = assay: Antitrypanosomal activity against Trypanosoma congolense by resazurin assay; assay type: functional, organism-based
[20] = Drug metabolism in rat liver S9 fraction assessed as UGT-mediated metabolism by measuring parent compound remaining at 5 uM measured after 60 mins in presence of UDPGA by UPLC analysis; assay type: ADME, subcellular; settings: s9, 1 h
UGT [21] = assay: Drug metabolism in mouse liver S9 fraction assessed as UGT-mediated metabolism by measuring parent compound remaining at 5 uM measured after 30 mins in presence of UDPGA by UPLC analysis; assay type: ADME, subcellular; settings: read-out: Stability
[22] = Inhibition of [3H]-adenosine transport at Trypanosoma brucei Adenosine transporter P1 expressed in pentamidine/diminazene/melaminophenyl arsenical resistant Trypanosoma brucei B48 bloodstream forms after 60 secs by scintillation counting analysis
[23] = test system: Trypanosoma brucei brucei; assay: Antitrypanosomal activity against Trypanosoma brucei brucei Squib 427 after 48 hrs by alamar blue assay; assay type: functional, organism-based; settings: Squib 427, 48 h
CYP450 [24] = assay: Drug metabolism in rat liver S9 fraction assessed as CYP450-mediated metabolism by measuring parent compound remaining at 5 uM measured after 60 mins in presence of NADPH by UPLC analysis; assay type: ADME, subcellular; settings: read-out: Stability
[25] = test system: UDP-glucuronosyltransferases (UGTs); assay: Drug metabolism in human liver S9 fraction assessed as UGT-mediated metabolism by measuring parent compound remaining at 5 uM measured after 15 mins in presence of UDPGA by UPLC analysis; assay type: ADME, subcellular; settings: s9, 0.25 h
[26] = Drug metabolism in mouse liver S9 fraction assessed as UGT-mediated metabolism by measuring parent compound remaining at 5 uM measured after 60 mins in presence of UDPGA by UPLC analysis; assay type: ADME, subcellular; settings: s9, 1 h
[27] = test system: Trypanosoma brucei rhodesiense; assay: Antitrypanosomal activity against Trypanosoma brucei rhodesiense STIB-900 after 48 hrs by alamar blue assay; assay type: functional, organism-based; settings: STIB-900, 48 h
[28] = Inhibition of [3H]-adenosine transport at Trypanosoma brucei Adenosine transporter P2 expressed in pentamidine/diminazene/melaminophenyl arsenical resistant Trypanosoma brucei B48 bloodstream forms after 60 secs by scintillation counting analysis
UGT [29] = molecular target: T2, UGT (Homo sapiens, UniProt O60656+O75310+O75795+P06133+P0DTE4+P0DTE5+P16662+P19224+P22309+P22310+P35503+P35504+P36537+P54855+Q6UWM9+Q9BY64+Q9HAW7+Q9HAW8+Q9HAW9); assay: Drug metabolism in human liver S9 fraction assessed as UGT-mediated metabolism by measuring parent compound remaining at 5 uM measured after 60 mins in presence of UDPGA by UPLC analysis; assay type: ADME, subcellular; settings: read-out: Stability
[30] = test system: UDP-glucuronosyltransferases (UGTs); assay: Drug metabolism in human liver S9 fraction assessed as UGT-mediated metabolism by measuring parent compound remaining at 5 uM measured after 30 mins in presence of UDPGA by UPLC analysis; assay type: ADME, subcellular; settings: s9, 0.5 h
CYP450 [31] = assay: Drug metabolism in mouse liver S9 fraction assessed as CYP450-mediated metabolism by measuring parent compound remaining at 5 uM measured after 60 mins in presence of NADPH by UPLC analysis; assay type: ADME, subcellular; settings: read-out: Stability
CYP450 [32] = assay: Drug metabolism in rat liver S9 fraction assessed as CYP450-mediated metabolism by measuring parent compound remaining at 5 uM measured after 30 mins in presence of NADPH by UPLC analysis; assay type: ADME, subcellular; settings: read-out: Stability
UGT [33] = assay: Drug metabolism in mouse liver S9 fraction assessed as UGT-mediated metabolism by measuring parent compound remaining at 5 uM measured after 15 mins in presence of UDPGA by UPLC analysis; assay type: ADME, subcellular; settings: read-out: Stability
Trypanosoma cruzi = assay: Antitrypanosomal activity against nifurtimox-sensitive Trypanosoma cruzi Tulahuen CL2 harboring beta-galactosidase infected in human MRC5 cells after 7 days by resazurin dye-based assay; assay type: functional, organism-based
CYP450 [34] = molecular target: T1, CYP450; assay: Drug metabolism in human liver S9 fraction assessed as CYP450-mediated metabolism by measuring parent compound remaining at 5 uM measured after 15 mins in presence of NADPH by UPLC analysis; assay type: ADME, subcellular; settings: read-out: Stability
UGT [35] = molecular target: T2, UGT; assay: Drug metabolism in human liver S9 fraction assessed as UGT-mediated metabolism by measuring parent compound remaining at 5 uM measured immediately in presence of UDPGA by UPLC analysis; assay type: ADME, subcellular; settings: read-out: Stability
Trypanosoma brucei [36] = assay: Antitrypanosomal activity against pentamidine/diminazene/melaminophenyl arsenical resistant Trypanosoma brucei B48 after 48 hrs by alamar blue assay; assay type: functional, organism-based; settings: B48, 48 h
CYP450 [37] = assay: Drug metabolism in rat liver S9 fraction assessed as CYP450-mediated metabolism by measuring parent compound remaining at 5 uM measured immediately in presence of NADPH by UPLC analysis; assay type: ADME, subcellular; settings: read-out: Stability

## Nc1ncnc2c1c(-c1ccccn1)cn2[C@@H]1O[C@H](CO)[C@@H](O)[C@H]1O
CYP450 [1]
  remaining at 0.25 h, 5 µM: 89%
CYP450 [2]
  remaining at 0.5 h, 5 µM: 12.6%
[3]
  selectivity ratio: 487
UGT [4]
  remaining at 0.25 h, 5 µM: 115%
UGT [5]
  remaining at 0 min, 5 µM: 100%
CYP450 [6]
  remaining at 0.25 h, 5 µM: 36.5%
CYP450 [7]
  remaining at 0.5 h, 5 µM: 102%
Trypanosoma brucei [8]
  EC50: 430 nM
CYP450 [9]
  remaining at 0 min, 5 µM: 100%
MRC5
  EC50: 15100 nM
[10]
  selectivity ratio: 49
CYP450 [11]
  remaining at 1 h, 5 µM: 82%
Trypanosoma brucei [12]
  EC50: 400 nM
Trypanosoma brucei [13]
  Ratio EC50: 2.4
[14]
  Stability: 125%
CYP450 [15]
  remaining at 0 min, 5 µM: 100%
Trypanosoma brucei [16]
  Ratio EC50: 1.6
Trypanosoma brucei [17]
  Ratio EC50: 2.5
Trypanosoma brucei [18]
  EC50: 170 nM
UGT [19]
  remaining at 0 min, 5 µM: 100%
Trypanosoma congolense
  EC50: 200 nM
[20]
  Stability: 122%
UGT [21]
  remaining at 0.5 h, 5 µM: 102%
[22]
  Ki: 2540 nM
[23]
  EC50: 310 nM
CYP450 [24]
  remaining at 1 h, 5 µM: 31%
[25]
  Stability: 123%
[26]
  Stability: 122%
[27]
  EC50: 31 nM
[28]
  Ki: 4570 nM
UGT [29]
  remaining at 1 h, 5 µM: 92%
[30]
  Stability: 121%
CYP450 [31]
  remaining at 1 h, 5 µM: 1.9%
CYP450 [32]
  remaining at 0.5 h, 5 µM: 77%
UGT [33]
  remaining at 0.25 h, 5 µM: 112%
Trypanosoma cruzi
  Activity: inactive
CYP450 [34]
  remaining at 0.25 h, 5 µM: 96%
UGT [35]
  remaining at 0 min, 5 µM: 100%
Trypanosoma brucei [36]
  EC50: 270 nM
CYP450 [37]
  remaining at 0 min, 5 µM: 100%

From ChEMBL document CHEMBL4422651, “Revisiting tubercidin against kinetoplastid parasites: Aromatic substitutions at position 7 improve activity and reduce toxicity” (Eur J Med Chem, 2019)
